Values of other authors, collected in US20110136157A1, “Copper regulation evaluation and therapy” (priority 2005, published 2011).
Where two headings read alike, the source gives them in different places.

Key:
[1] = tested on: Wilson's disease patients; settings: long-term use

Question: Which results are given for `CC(C)(S)[C@@H](N)C(=O)O` [Penicillamine, 3-mercapto-D-valine]?
Answer: solubility (alcohol): slightly soluble in alcohol; solubility (water): freely soluble in water

Question: With `CC(=O)[O-].CC(=O)[O-].[Zn+2]` [Zinc acetate] as the compound, how does the “long-term or major side effects” value [1] read?
Answer: Its value is “has not shown any long-term or major side effects”.
